Results from ChEMBL document CHEMBL1201862, “PubChem BioAssay data set” (2004).
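Compound exposure: 48 hours, 5 concentrations, 96-well plates. Abbreviation: GI50, concentration required for 50% inhibition of growth.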 The source made the active and inactive calls. Cut-off read from the data, not from the text of the source: active = GI50 up to about 1.1 µM and inactive = higher.

Experiments:
Assay in all cases: NCI-60 cell line screen, 48 h
[1] = test system: COLO 205
[2] = test system: SK-MEL-2
[3] = test system: MOLT-4
[4] = test system: SNB-19
[5] = test system: SNB-75
[6] = test system: Malme-3M
[7] = test system: HCT-116
[8] = test system: A498
[9] = test system: OVCAR-8
[10] = test system: K562
[11] = test system: SN12C
[12] = test system: SW-620
[13] = test system: UACC-62
[14] = test system: SK-MEL-5
[15] = test system: SK-OV-3
[16] = test system: OVCAR-5
[17] = test system: U-251
[18] = test system: HOP-92
[19] = test system: ACHN
[20] = test system: RXF 393

Measured: GI50

O=C(N/N=C\c1ccc([N+](=O)[O-])cc1)c1ccccc1Nc1ccccc1C(=O)N/N=C/c1ccc([N+](=O)[O-])cc1
inactive: [1] > 100 µM | [2] > 100 µM | [3] 66.2 µM | [4] > 100 µM | [5] > 100 µM | [6] 39.4 µM | [7] > 100 µM | [8] > 100 µM | [9] > 100 µM | [10] > 100 µM | [11] > 100 µM | [12] > 100 µM | [13] > 100 µM | [14] > 100 µM | [15] > 100 µM | [16] 76.4 µM | [17] > 100 µM | [18] > 100 µM | [19] > 100 µM | [20] > 100 µM

Cn1cnc2[nH]c(=O)[nH]c(=S)c21
inactive: [1] > 100 µM | [2] > 100 µM | [3] > 100 µM | [4] > 100 µM | [5] > 100 µM | [6] > 100 µM | [7] > 100 µM | [8] > 100 µM | [9] > 100 µM | [10] > 100 µM | [11] > 100 µM | [12] > 100 µM | [13] > 100 µM | [14] > 100 µM | [15] > 100 µM | [16] > 100 µM | [17] > 100 µM | [18] > 100 µM | [19] > 100 µM | [20] > 100 µM

Nc1ccc(C(=O)N/C(=C\C=C\c2ccco2)c2nc3c4c(ccc3[nH]2)C(=O)c2ccccc2C4=O)cc1
inactive: [1] 61.1 µM | [2] 26.5 µM | [3] 3.67 µM | [4] 39.7 µM | [5] 14.2 µM | [6] 85.9 µM | [7] 24.8 µM | [8] 22.4 µM | [9] 32.2 µM | [10] 26.8 µM | [11] 29.4 µM | [12] 33 µM | [13] 25 µM | [14] 38 µM | [15] 21.7 µM | [16] > 100 µM | [17] 31.3 µM | [18] 37 µM | [19] 10.8 µM | [20] 25.2 µM

O=[N+]([O-])c1ccc2[nH]c(=S)[nH]c(=S)c2c1
inactive: [1] > 100 µM | [2] > 100 µM | [3] > 100 µM | [4] > 100 µM | [5] 20.7 µM | [6] > 100 µM | [7] > 100 µM | [8] > 100 µM | [9] > 100 µM | [10] > 100 µM | [11] > 100 µM | [12] > 10 µM | [13] > 100 µM | [14] > 100 µM | [15] > 100 µM | [16] > 100 µM | [17] > 100 µM | [18] > 100 µM | [19] > 100 µM | [20] > 100 µM

Cc1c2c(OCCCCN3CCN(c4ncccn4)CC3)nn(C)c(=O)c2c(C)n1-c1ccccc1
inactive: [1] 19 µM | [2] 19.6 µM | [3] 26.8 µM | [4] 19 µM | [5] 19.5 µM | [6] 20.2 µM | [7] 16.9 µM | [8] 16.9 µM | [9] 24.7 µM | [10] 30.8 µM | [11] 17.2 µM | [12] 25.6 µM | [13] 16.8 µM | [14] 13.8 µM | [15] 18.7 µM | [16] 20.5 µM | [17] 18.1 µM | [18] 16.4 µM | [19] 17.4 µM | [20] 18.6 µM

O=C(N(C1=CCCC1)N(c1ccccc1)c1ccccc1)C(F)(F)F
inactive: [1] 18.6 µM | [2] 17.1 µM | [3] 14 µM | [4] 30 µM | [5] 20 µM | [6] 3.76 µM | [7] 21.5 µM | [8] 51.8 µM | [9] 29.9 µM | [10] 19.5 µM | [11] 26.9 µM | [12] 20.2 µM | [13] 25.8 µM | [14] 16.3 µM | [15] 40.1 µM | [16] 27 µM | [17] 19.8 µM | [18] 10.5 µM | [19] 17.3 µM | [20] 17 µM

O=C(CCCN1CC=C(n2c(=O)[nH]c3ccccc32)CC1)c1cccs1
inactive: [1] > 100 µM | [2] > 100 µM | [3] 45.6 µM | [4] > 100 µM | [5] > 100 µM | [6] > 100 µM | [7] > 100 µM | [8] > 100 µM | [9] > 100 µM | [10] 66.2 µM | [11] > 100 µM | [12] > 100 µM | [13] > 100 µM | [14] > 100 µM | [15] > 100 µM | [16] > 100 µM | [17] > 100 µM | [18] > 100 µM | [19] > 100 µM | [20] > 100 µM

N#Cc1c(-c2ccccc2)c(C#N)c(=O)n(NS(=O)(=O)c2ccccc2)c1O
inactive: [1] > 100 µM | [2] > 100 µM | [3] > 100 µM | [4] > 100 µM | [5] > 100 µM | [6] > 100 µM | [7] > 100 µM | [8] > 100 µM | [9] > 100 µM | [10] > 100 µM | [11] > 100 µM | [12] > 100 µM | [13] > 100 µM | [14] > 100 µM | [15] > 100 µM | [16] > 100 µM | [17] > 100 µM | [18] > 100 µM | [19] > 100 µM | [20] > 100 µM

NNC(=O)C(=O)N/N=C(\CCC(=O)Nc1ccc(Cl)cc1)Cc1nc2ccccc2s1
inactive: [1] 32.7 µM | [2] 28.9 µM | [3] 18.5 µM | [4] 30.5 µM | [5] 81.1 µM | [6] 44.7 µM | [7] 28.1 µM | [8] 52 µM | [9] > 100 µM | [10] 18.9 µM | [11] 34.6 µM | [12] 35.3 µM | [13] 22.1 µM | [14] 21.8 µM | [15] 27.3 µM | [16] 33.1 µM | [17] 18.8 µM | [18] 45.5 µM | [19] 26.1 µM | [20] 17.2 µM

O=C1CCCC2=C(N1)C(=O)C=CC2=O
inactive: [1] 23.8 µM | [2] 44 µM | [3] 12.3 µM | [4] 44.1 µM | [5] 43.8 µM | [6] 39.4 µM | [7] 33.7 µM | [8] 43.3 µM | [9] 47.4 µM | [10] 6.73 µM | [11] 29.2 µM | [12] 23.1 µM | [13] 42.2 µM | [14] 42.1 µM | [15] > 100 µM | [16] 33.4 µM | [17] 43.8 µM | [18] 22.2 µM | [19] 40.6 µM | [20] 45 µM

Cc1ccc(/C=C2\CCCC(CN(C)C)C2=O)cc1 (stereo not given)
inactive: [1] 1.73 µM | [2] 4.76 µM | [3] 2.28 µM | [4] 16.4 µM | [5] 8.13 µM | [6] 1.91 µM | [7] 1.69 µM | [8] 14.3 µM | [9] 3.04 µM | [10] 1.66 µM | [11] 1.91 µM | [12] 1.53 µM | [13] 2.03 µM | [14] 3.51 µM | [15] 13.6 µM | [16] 15.8 µM | [17] 13.5 µM | [18] 1.88 µM | [19] 2.24 µM | [20] 1.79 µM

O=C1NC(Nc2ccccc2)=N/C1=C\c1c(Cl)cccc1Cl
inactive: [1] 31.3 µM | [2] 18 µM | [3] 20.7 µM | [4] 25 µM | [5] 18.9 µM | [6] 22.7 µM | [7] 27.4 µM | [8] 32.3 µM | [9] 19.1 µM | [10] 21 µM | [11] 15.7 µM | [12] 36.1 µM | [13] 21.6 µM | [14] 16.3 µM | [15] 21.6 µM | [16] 29 µM | [17] 17.9 µM | [18] 11.9 µM | [19] 37.5 µM | [20] 17.8 µM

CC1(CCCO)CCCCCC(C)(CCCO)C1=O (stereo not given)
inactive: [1] > 100 µM | [2] > 100 µM | [3] > 100 µM | [4] > 100 µM | [5] 92.3 µM | [6] > 100 µM | [7] > 100 µM | [8] > 100 µM | [9] > 100 µM | [10] > 100 µM | [11] > 100 µM | [12] > 100 µM | [13] > 100 µM | [14] > 100 µM | [15] > 100 µM | [16] > 100 µM | [17] > 100 µM | [18] > 100 µM | [19] > 100 µM | [20] > 100 µM

COc1ccc(/[N+]([O-])=C/c2ccccc2OC(=S)S)cc1
inactive: [1] 30.1 µM | [2] 28.2 µM | [3] 37.7 µM | [4] 51.3 µM | [5] 62.4 µM | [6] > 100 µM | [7] 25.5 µM | [8] 26.1 µM | [9] 18.7 µM | [10] 37.4 µM | [11] 24.5 µM | [12] 39.8 µM | [13] 32.6 µM | [14] 30.5 µM | [15] 86.1 µM | [16] 35.9 µM | [17] 46.6 µM | [18] 12.4 µM | [19] 38.5 µM | [20] 52 µM
